{
  "source": "BindingDB's records for patent US9908886",
  "about": "(Agency For Science, Technology and Research, 2018)",
  "key": {"[1]": {"biological_target": "MAP kinase-interacting serine/threonine-protein kinase 1 (Homo sapiens, UniProt Q9BUB5)", "sequence (Q9BUB5 whole entry, the tested form may be a part)": "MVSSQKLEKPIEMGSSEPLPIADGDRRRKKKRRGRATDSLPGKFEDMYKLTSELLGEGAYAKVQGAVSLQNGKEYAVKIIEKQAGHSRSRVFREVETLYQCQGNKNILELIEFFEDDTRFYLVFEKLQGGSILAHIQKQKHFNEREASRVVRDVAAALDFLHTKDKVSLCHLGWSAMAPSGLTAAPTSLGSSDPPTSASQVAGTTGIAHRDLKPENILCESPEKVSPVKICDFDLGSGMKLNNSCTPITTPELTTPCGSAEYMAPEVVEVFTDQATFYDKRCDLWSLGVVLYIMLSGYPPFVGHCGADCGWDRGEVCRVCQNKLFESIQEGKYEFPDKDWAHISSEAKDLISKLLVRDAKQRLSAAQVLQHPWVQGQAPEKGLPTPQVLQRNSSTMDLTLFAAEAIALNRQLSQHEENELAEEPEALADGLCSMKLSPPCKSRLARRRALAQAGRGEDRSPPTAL", "assay": "In Vitro Kinase Assay", "method": "(§1) MNK1 and MNK2 inhibitor activity was determined using recombinant kinase domains expressed in E. coli. MNK1 and MNK2 were expressed as GST fusion proteins and the GST tag was removed using PreScission protease. After concentration to 10-15 mg/ml the proteins were flash frozen in liquid nitrogen and stored at −80° C. […] This reaction mixture was then used immediately for the activation of the MNKs. The activation of the MNK1 was performed by incubating 5.0 μM of MNK1 with 0.3 μM of activated ERK2 and 500 μM ATP at 30° C. for 6 hours. The activation of MNK2 was performed by incubating 50 μM of MNK2 with 3.0 μM of activated ERK2 and 500 μM ATP at 30° C. for 2 hours. The activated MNKs were stored at −20° C. until required for assay."}, "[2]": {"biological_target": "MAP kinase-interacting serine/threonine-protein kinase 2 (Homo sapiens, UniProt Q9HBH9)", "sequence (Q9HBH9 whole entry)": "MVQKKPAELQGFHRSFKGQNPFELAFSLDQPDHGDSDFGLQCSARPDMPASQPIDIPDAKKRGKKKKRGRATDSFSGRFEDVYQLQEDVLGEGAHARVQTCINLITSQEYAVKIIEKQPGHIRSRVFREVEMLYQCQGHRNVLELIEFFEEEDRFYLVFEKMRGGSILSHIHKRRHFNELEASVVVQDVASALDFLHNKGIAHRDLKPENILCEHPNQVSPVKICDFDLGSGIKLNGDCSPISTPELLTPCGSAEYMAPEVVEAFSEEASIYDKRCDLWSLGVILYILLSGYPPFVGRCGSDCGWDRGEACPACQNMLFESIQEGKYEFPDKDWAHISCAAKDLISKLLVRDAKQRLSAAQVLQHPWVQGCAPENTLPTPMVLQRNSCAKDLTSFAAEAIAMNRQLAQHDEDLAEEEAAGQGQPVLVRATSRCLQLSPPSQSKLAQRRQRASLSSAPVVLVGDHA", "assay": "In Vitro Kinase Assay", "method": "as §1"}},
  "note": "pIC50: −log10 of the molar value.",
  "data": [
    {"smiles": "CN1CCN(C(=O)c2ccc(-c3ccc4ncc(-c5ccc(C#N)cc5)n4n3)cc2)CC1", "note": "[US9908886, Example 54]", "values": [
      {"measurement": "pIC50", "setting": "[1]", "value": "> 7.00"},
      {"measurement": "pIC50", "setting": "[2]", "value": "> 7.00"}
    ]}
  ]
}
